The results in this text go back to PMC5620277, “The histone methyltransferase EZH2 as a druggable target in SHH medulloblastoma cancer stem cells” (Oncotarget, 2017).

The structures appear in SMILES notation.

The term inhibition denotes the change of the read-out against control, counted positive when it falls. A high value points to a response far below the control.

The target of data set [1] is DOT1L (Homo sapiens, UniProt Q8TEK3). The data set can be described thus: Methyltransferase panel: DOT1L. The settings on record: substrate nucleosomes. It is filed as biochemical. As for the experimental part: (§1) MC3629 was tested in the cell free enzymatic assay (EZH2/PRC2) in 10-dose IC50 mode with 2-fold serial dilution starting from 400 μM solution, using various histone substrates (histone H3/H4 octamer, histone H3/H4 tetramer, histone H3, and core histone) and SAM as the co-substrate. […] (Figure 2B, and Supplementary Figure 2).
DOT1L, sequence (Q8TEK3 whole entry, species assumed): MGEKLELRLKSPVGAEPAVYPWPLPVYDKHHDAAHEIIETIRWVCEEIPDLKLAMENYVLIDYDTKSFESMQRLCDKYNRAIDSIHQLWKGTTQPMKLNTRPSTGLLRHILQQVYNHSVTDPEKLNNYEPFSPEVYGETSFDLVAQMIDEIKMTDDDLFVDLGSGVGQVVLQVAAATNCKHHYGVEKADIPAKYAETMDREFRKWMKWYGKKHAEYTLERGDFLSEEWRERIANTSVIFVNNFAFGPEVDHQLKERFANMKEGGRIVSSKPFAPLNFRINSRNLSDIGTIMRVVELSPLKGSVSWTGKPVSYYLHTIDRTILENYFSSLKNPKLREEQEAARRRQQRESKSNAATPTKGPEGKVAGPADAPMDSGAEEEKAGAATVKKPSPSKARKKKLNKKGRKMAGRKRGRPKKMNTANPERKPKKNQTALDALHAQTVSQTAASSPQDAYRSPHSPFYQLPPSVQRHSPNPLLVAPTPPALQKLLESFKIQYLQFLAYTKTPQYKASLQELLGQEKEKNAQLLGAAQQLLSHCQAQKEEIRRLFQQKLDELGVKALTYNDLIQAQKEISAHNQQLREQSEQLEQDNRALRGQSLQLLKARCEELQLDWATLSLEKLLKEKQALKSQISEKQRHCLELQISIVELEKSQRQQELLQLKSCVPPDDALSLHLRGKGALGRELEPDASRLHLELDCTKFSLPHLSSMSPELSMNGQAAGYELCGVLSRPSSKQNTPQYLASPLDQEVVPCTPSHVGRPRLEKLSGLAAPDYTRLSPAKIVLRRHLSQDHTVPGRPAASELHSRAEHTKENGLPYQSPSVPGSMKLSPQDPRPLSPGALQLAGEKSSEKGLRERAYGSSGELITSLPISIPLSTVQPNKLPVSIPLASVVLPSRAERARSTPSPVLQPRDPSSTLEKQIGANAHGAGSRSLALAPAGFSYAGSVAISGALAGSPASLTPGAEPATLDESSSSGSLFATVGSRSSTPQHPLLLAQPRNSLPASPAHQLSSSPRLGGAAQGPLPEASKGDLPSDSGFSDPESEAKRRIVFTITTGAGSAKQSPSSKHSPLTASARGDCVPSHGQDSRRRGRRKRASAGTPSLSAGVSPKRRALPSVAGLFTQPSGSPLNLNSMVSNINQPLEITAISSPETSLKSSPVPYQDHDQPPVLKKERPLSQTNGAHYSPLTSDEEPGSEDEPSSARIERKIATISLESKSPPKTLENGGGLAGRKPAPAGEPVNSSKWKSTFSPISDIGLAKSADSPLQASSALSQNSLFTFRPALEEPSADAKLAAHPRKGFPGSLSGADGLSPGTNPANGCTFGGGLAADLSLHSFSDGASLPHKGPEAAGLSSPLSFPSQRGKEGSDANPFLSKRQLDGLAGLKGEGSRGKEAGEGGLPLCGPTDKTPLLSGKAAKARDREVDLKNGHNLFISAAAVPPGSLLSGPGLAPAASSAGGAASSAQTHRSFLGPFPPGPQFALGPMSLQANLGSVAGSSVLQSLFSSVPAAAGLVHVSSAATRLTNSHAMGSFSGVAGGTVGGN
(§2) The appropriate methyltransferase (MT) substrate (0.05 mg/ml core histone for EZH1 complex, 0.05 mg/ml oligonucleosomes for DOT1L, 5 μM histone H3 (1-21) peptide for G9a, 0.05 mg/ml nucleosomes for MLL1 complex, 0.05 mg/ml core histone for SET7/9, 5 μM histone H4 for PRMT1, and 0.001 mg/ml poly(dI-dC) for DNMT1) was added in freshly prepared Reaction Buffer (50 mM Tris-HCl (pH 8.5), 5 mM MgCl2, 50 mM NaCl, 0.01% Brij35, 1 mM DTT, 1% DMSO). The MT enzyme was delivered into the substrate solution and the mixture was mixed gently. Afterwards, the tested compound dissolved in DMSO was delivered into the enzyme/substrate reaction mixture by using Acoustic Technology (Echo 550, LabCyte Inc. Sunnyvale, CA) in nanoliter range, and 1 μM ^3H-SAM was also added into the reaction mixture to initiate the reaction. The reaction mixture was incubated for 1 h at 30°C and then it was delivered to filter-paper for detection. The data were analyzed using Excel and GraphPad Prism software for IC50 curve fits (for EZH1 complex).

The target of data set [2] is T1, SET7/9 (Homo sapiens, UniProt Q8WTS6).
T1 sequence (Q8WTS6 1-366): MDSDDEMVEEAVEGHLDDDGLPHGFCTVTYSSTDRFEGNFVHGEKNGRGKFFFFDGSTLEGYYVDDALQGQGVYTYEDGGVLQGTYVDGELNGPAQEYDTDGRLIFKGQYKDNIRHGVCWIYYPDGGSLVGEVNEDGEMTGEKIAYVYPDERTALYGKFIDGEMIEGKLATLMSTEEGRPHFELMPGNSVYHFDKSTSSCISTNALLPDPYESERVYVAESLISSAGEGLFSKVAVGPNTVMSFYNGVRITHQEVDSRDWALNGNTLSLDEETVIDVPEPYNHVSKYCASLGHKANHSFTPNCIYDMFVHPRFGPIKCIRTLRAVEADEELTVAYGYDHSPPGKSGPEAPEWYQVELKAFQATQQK
The data set is described as follows: Methyltransferase panel: SET7/9. It is filed as biochemical. Particulars: substrate histone H3/H4 octamer. As for the experimental part: as §1, §2

Data set [3] concerns mMB-SLCs. The data set can be described thus: Self-renewal, clonogenic assay, mMB-SLCs. It is filed as cell-based, mouse. Particulars: 5 μM. As for the experimental part: (§3) For self-renewal assessment, clonogenic assay was performed as previously described. Briefly: oncospheres were disaggregated with non-enzymatic cell dissociation buffer (Sigma) and cells were plated at clonal density (1-2 cells/mm^2) into 96-well plates and cultured for an appropriate number of days (7-15) until oncospheres were countable.

In data set [4] the test system is hMB-SLCs. The data set is described as follows: Self-renewal, clonogenic assay, hMB-SLCs. The settings on record: 5 μM. It is filed as cell-based, human. As for the experimental part: as §3
For data set [5], the system named is DAOY cells. The data set can be described thus: Western Blot of H3K27me3 and PCNA in DAOY cells. It is filed as cell-based. The settings on record: 5 μM, 48 h. As for the experimental part:
(§4) To evaluate cell viability cells were plated at a density of 5×10^3 cells/well in 96-well plates and were incubated with MTS solution (CellTiter 96® AQueous One Solution Promega).
(§5) Western blots were performed according to standard procedures. Briefly, protein lysates were prepared using RIPA buffer with fresh protease inhibitors. Lysates were separated on SDS polyacrylamide gels. Proteins were transferred on nitrocellulose membrane (0.45 micron) (PerkinElmer). Membranes were blocked for 1 h at room temperature in 5% nonfat dry milk and incubated overnight at 4°C with antibodies against EZH2 (4905S Cell signaling), H3K27me3 (07-449 Millipore), PCNA (2586 Cell signaling), ACTIN (I-19 sc-1616; Santa Cruz Biotechnology), GAPDH (ab9484, Abcam), cleaved CSP-3 (D-175 9661S; Cell Signaling) and H3 (ab1971, Abcam). HRP-conjugated secondary antibodies (Santa Cruz Biotechnology) were used in combination with enhanced chemiluminescence (ECL Amersham).
(In general: A western blot detects proteins with antibodies after separation by electrophoresis.)

Data set [6] relates to DAOY-SLCs. The data set is described as follows: Western Blot of H3K27me3 and PCNA in DAOY-SLCs. It is filed as cell-based. Particulars: 5 μM, 48 h. As for the experimental part: as §4, §5
Data set [7] has as its system DAOY cells. The data set can be described thus: Cell viability, MTS assay, DAOY cells. It is filed as cell-based. The settings on record: 5 μM, after 48 h. As for the experimental part: as §4
Data set [8] concerns neural stem cells (NSC). The data set is described as follows: Western Blot of H3K27me3 and PCNA in neural stem cells (non-transformed cells). It is filed as cell-based. The settings on record: 5 μM, 48 h. As for the experimental part: as §5
Data set [9] can be described thus: PAMPA-BBB (porcine brain lipid extract artificial membrane). It is filed as in vitro ADME. As for the experimental part:
Donor solution (500 μM or 250 μM) was prepared by diluting 10 or 5 mM DMSO compound stock solution using phosphate buffer (pH 7.4, 0.01 M). Filter membrane was coated with 5 μl of BBB-specific lipid solution prepared dissolving 16 mg of PBL (Avanti Lipids Polar, 141101P) in 600 μl of n-dodecane. Donor solution (150 μl) was added to each well of the filter plate. To each well of the acceptor plate 300 μl of solution (5% DMSO in phosphate buffer) were added. Each compound was tested in triplicate. The sandwich was incubated for 24 h at room temperature under gentle shaking. After the incubation time, the sandwich plates were separated and 250 μl of the acceptor plate were transferred to a UV quartz microtiter plate and measured by UV spectroscopy, using a Multiskan GO microplate spectrophotometer (Thermo Scientific) at 250−500 nm at step of 5 nm. Reference solutions (250 μl) were prepared diluting the sample stock solutions to the same concentration as that with no membrane barrier. The BBB permeability value Log Pe is determined applying the equation:
log Pe= log{C⋅(−ln(1−[drug]acceptor/[drug]equilibrium))},
where C=(VD⋅VA/(VD+VA)area⋅time)
In this equation, VA is the volume of the acceptor compartment (0.3 cm^3), VD is the donor volume (0.15 cm^3), area is the accessible filter area (0.24 cm^2), and time is the incubation time in seconds.
(PAMPA measures passive passage across an artificial lipid membrane.)

With `Cc1cc(C)c(CNC(=O)c2cnn(-c3ccccc3)c2C)c(=O)[nH]1` [MC3629, N-((4,6-dimethyl-2-oxo-1,2-dihydropyridin-3-yl)methyl)-5-methyl-1-phenyl-1H-pyrazole-4-carboxamide], the inhibition at 200 µM in data set [1] was found to be 3%; in data set [2], 5.2%. Moreover, the self-renewal result in data set [3] and in [4] was “significantly reduced” throughout. Also, the “H3K27me3 and PCNA levels” value in data set [5] was “impaired”; in [6], “down modulated”. The cell viability result in [7] was “impaired cell viability”. The “H3K27me3 and PCNA protein levels” value in data set [8] is “did not observe any effects”. Besides, the Papp at 24 h in [9] (Pe in cm/s, pH 7.4, 24 h, room temperature, triplicate, read-out: Log Pe (converted)) was 4.68 ×10⁻⁶ cm/s. Besides, in data set [9] (respect to propranolol), the “Δ Log Pe” value is listed as −0.12.
